From patent US20210277015A1, “OGA INHIBITOR COMPOUNDS” (Janssen Pharmaceutica NV, priority 2018, published 2021)

What was measured:
[1] = target: T1, recombinant human Meningioma Expressed Antigen 5 (MGEA5), also referred to as O-GlcNAcase (OGA) (Homo sapiens, UniProt O60502); experiment: OGA biochemical assay (inhibition of FM-GlcNAc hydrolysis, fluorescence); conditions: FM-GlcNAc substrate; for IC50: 6 h at room temperature, read-out: Enzymatic hOGA, pIC50 (converted); for Enzymatic Emax (%) / Emax: maximal effect; for Emax: read-out: Enzymatic Emax (%)
T1 construct: Full length OGA enzyme was purchased at OriGene (cat #TP322411); purchased OriGene TP322411
T1 sequence (O60502 1-916): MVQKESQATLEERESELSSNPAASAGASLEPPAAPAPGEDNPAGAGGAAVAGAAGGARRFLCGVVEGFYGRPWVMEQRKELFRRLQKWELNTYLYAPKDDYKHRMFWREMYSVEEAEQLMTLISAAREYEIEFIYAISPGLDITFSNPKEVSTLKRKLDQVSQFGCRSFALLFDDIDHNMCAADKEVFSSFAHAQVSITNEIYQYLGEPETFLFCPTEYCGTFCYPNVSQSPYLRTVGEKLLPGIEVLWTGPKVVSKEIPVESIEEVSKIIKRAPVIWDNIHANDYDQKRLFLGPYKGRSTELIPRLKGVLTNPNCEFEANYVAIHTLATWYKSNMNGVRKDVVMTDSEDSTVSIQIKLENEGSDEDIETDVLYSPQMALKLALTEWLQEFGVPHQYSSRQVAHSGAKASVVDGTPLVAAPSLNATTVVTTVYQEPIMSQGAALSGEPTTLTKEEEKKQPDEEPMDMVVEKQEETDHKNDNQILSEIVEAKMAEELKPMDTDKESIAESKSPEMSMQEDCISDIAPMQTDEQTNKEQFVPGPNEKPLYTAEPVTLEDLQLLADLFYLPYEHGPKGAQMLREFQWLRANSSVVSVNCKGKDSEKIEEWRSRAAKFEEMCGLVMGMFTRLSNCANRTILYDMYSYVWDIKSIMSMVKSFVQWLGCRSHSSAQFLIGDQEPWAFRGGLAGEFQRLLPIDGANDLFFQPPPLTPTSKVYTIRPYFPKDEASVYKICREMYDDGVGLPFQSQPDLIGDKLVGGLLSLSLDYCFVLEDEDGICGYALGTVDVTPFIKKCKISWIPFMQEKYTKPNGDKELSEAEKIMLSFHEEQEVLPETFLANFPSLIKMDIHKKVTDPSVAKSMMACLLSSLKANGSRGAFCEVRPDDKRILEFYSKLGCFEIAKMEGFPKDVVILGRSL
Description: The assay is based on the inhibition of the hydrolysis of fluorescein mono-β-D-N-Acetyl-Glucosamine (FM-GlcNAc) (Mariappa et al. 2015, Biochem J 470:255) by the recombinant human Meningioma Expressed Antigen 5 (MGEA5), also referred to as O-GlcNAcase (OGA). The hydrolysis FM-GlcNAc (Marker Gene technologies, cat #M1485) results in the formation of β-D-N-glucosamineacetate and fluorescein. The fluorescence of the latter can be measured at excitation wavelength 485 nm and emission wavelength 538 nm. An increase in enzyme activity results in an increase in fluorescence signal. Full length OGA enzyme was purchased at OriGene (cat #TP322411). The enzyme was stored in 25 mM Tris.HCl, pH 7.3, 100 mM glycine, 10% glycerol at −20° C. Thiamet G and GlcNAcStatin were tested as reference compounds (Yuzwa et al. 2008 Nature Chemical Biology 4:483; Yuzwa et al. 2012 Nature Chemical Biology 8:393). The assay was performed in 200 mM Citrate/phosphate buffer supplemented with 0.005% Tween-20. 35.6 g Na2HPO4 2 H2O (Sigma, #C0759) were dissolved in 1 L water to obtain a 200 mM solution. 19.2 g citric acid (Merck, #1.06580) was dissolved in 1 L water to obtain a 100 mM solution. pH of the sodium phosphate solution was adjusted with the citric acid solution to 7.2. The buffer to stop the reaction consists of a 500 mM Carbonate buffer, pH 11.0. 734 mg FM-GlcNAc were dissolved in 5.48 mL DMSO to obtain a 250 mM solution and was stored at −20° C. OGA was used at a 2 nM concentration and FM-GlcNAc at a 100 uM final concentration. Dilutions were prepared in assay buffer.
50 nl of a compound dissolved in DMSO was dispensed on Black Proxiplate™ 384 Plus Assay plates (Perkin Elmer, #6008269) and 3 μl fl-OGA enzyme mix added subsequently. Plates were pre-incubated for 60 min at room temperature and then 2 μl FM-GlcNAc substrate mix added. […] Plates were briefly centrifuged for 1 min at 1000 rpm and incubate at room temperature for 6 h. To stop the reaction 5 μl STOP buffer were added and plates centrifuge again 1 min at 1000 rpm. Fluorescence was quantified in the Thermo Scientific Fluoroskan Ascent or the PerkinElmer EnVision with excitation wavelength 485 nm and emission wavelength 538 nm.
For analysis a best-fit curve is fitted by a minimum sum of squares method. From this an IC50 value and Hill coefficient was obtained. High control (no inhibitor) and low control (saturating concentrations of standard inhibitor) were used to define the minimum and maximum values.

OGA = target: T2, OGA (Homo sapiens, UniProt O60502); experiment: OGA cellular assay (ICC detection of O-GlcNAcylated proteins in HEK293 cells inducible for P301L mutant human Tau); type: cell-based; conditions: for Cellular hOGA; pEC50 / Cellular Emax (%) / EC50: HEK293 cells inducible for P301L mutant human Tau; for Cellular hOGA; pEC50 / EC50: 6 hours incubation, ICC O-GlcNAcylation; for Cellular Emax (%) / Emax: maximum defined by Thiamet G at 200 uM; for Emax: HEK293, HEK293 cells inducible for P301L mutant human Tau; for EC50: read-out: Cellular hOGA, pEC50 (converted)
T2 construct: endogenous in cells; host or cells: HEK293 cells inducible for P301L mutant human Tau (isoform 2N4R)
T2 sequence (O60502 1-916): T1 sequence (O60502 1-916)
Experimental: HEK293 cells inducible for P301L mutant human Tau (isoform 2N4R) were established at Janssen. Thiamet-G was used for both plate validation (high control) and as reference compound (reference EC50 assay validation). OGA inhibition is evaluated through the immunocytochemical (ICC) detection of O-GlcNAcylated proteins by the use of a monoclonal antibody (CTD110.6; Cell Signaling, #9875) detecting O-GlcNAcylated residues as previously described (Dorfmueller et al. 2010 Chemistry & biology, 17:1250). Inhibition of OGA will result in an increase of O-GlcNAcylated protein levels resulting in an increased signal in the experiment. Cell nuclei are stained with Hoechst to give a cell culture quality control and a rough estimate of immediate compounds toxicity, if any. ICC pictures are imaged with a Perkin Elmer Opera Phenix plate microscope and quantified with the provided software Perkin Elmer Harmony 4.1.
Cells were propagated in DMEM high Glucose (Sigma, #D5796) following standard procedures. 2 days before the cell assay cells are split, counted and seeded in Poly-D-Lysine (PDL) coated 96-wells (Greiner, #655946) plate at a cell density of 12,000 cells per cm^2 (4,000 cells per well) in 100 μl of Assay Medium (Low Glucose medium is used to reduce basal levels of GlcNAcylation) (Park et al. 2014 The Journal of biological chemistry 289:13519). At the day of compound test medium from assay plates was removed and replenished with 90 μl of fresh Assay Medium. 10 μl of compounds at a 10 fold final concentration were added to the wells. Plates were centrifuged shortly before incubation in the cell incubator for 6 hours. DMSO concentration was set to 0.2%. Medium is discarded by applying vacuum. For staining of cells medium was removed and cells washed once with 100 μl D-PBS (Sigma, #D8537). From next step onwards unless other stated assay volume was always 50 μl and incubation was performed without agitation and at room temperature. Cells were fixed in 50 μl of a 4% paraformaldehyde (PFA, Alpha aesar, #043368) PBS solution for 15 minutes at room temperature. […] Before analysis samples were washed 2 times manually for 5 minutes in ICC base buffer.
Imaging is performed using Perkin Elmer Phenix Opera using a water 20× objective and recording 9 fields per well. Intensity readout at 488 nm is used as a measure of O-GlcNAcylation level of total proteins in wells. To assess potential toxicity of compounds nuclei were counted using the Hoechst staining. IC50-values are calculated using parametric non-linear regression model fitting. As a maximum inhibition Thiamet G at a 200 uM concentration is present on each plate. In addition, a concentration response of Thiamet G is calculated on each plate.

| IC50 [1] [nM] | Enzymatic Emax (%) [1] [%] | Cellular hOGA; pEC50 (OGA) | Cellular Emax (%) (OGA) | Emax [1] [%] | Emax (OGA) [%] | EC50 (OGA) [nM] | SMILES |
| --- | --- | --- | --- | --- | --- | --- | --- |
| 398 | 97 | <6 | 34 | – | – | – | Cc1cc(CC2(C)CCN(C(C)c3ccc4c(n3)OCCO4)C2)cc(C)n1 (centres unmarked) [Product 59] |
| > 10000 | 21 | <6 | −8 | – | – | – | Cc1cc(O[C@H]2CCN(C(C)c3ccc4c(n3)OCCO4)C2)cc(C)n1 (single isomer, unassigned) [Product 72] |
| 316 | – | – | – | 100 | 17 | > 1000 | Cc1cc(CC2(C)CCN(C(C)c3ccc4c(n3)OCCO4)C2)cc(C)n1 (centres unmarked) [Product 58] |
| 631 | – | – | – | 94 | 9 | > 1000 | Cc1cc(CO[C@@H]2CCN(C(C)c3ccc4c(n3)OCCO4)C2)cc(C)n1 (mixture of isomers) [Product 115] |
| 158 | – | – | – | 97 | 20 | > 1000 | Cc1cc(C[C@@H]2CCN(C(C)c3cnc4c(c3)OCCO4)C2)cc(C)n1 (mixture of isomers) [Product 116] |
| 79.4 | – | – | – | 99 | 44 | > 1000 | Cc1cc(C[C@H]2CN(C(C)c3ccc4c(n3)OCCO4)C[C@@H]2C)cc(C)n1 (mixture of isomers) [Product 60] |
| 79.4 | – | – | – | 101 | 61 | 501 | COc1cc(C[C@H]2CCN(C(C)c3cnc4c(c3)OCCN4)C2)cc(C)n1 (some centres unmarked) [Product 20] |
| 12.6 | – | – | – | 101 | 90 | 126 | COc1cc(C[C@@H]2CCN(C(C)c3nc4c(cc3F)OCCO4)C2)cc(C)n1 (mixture of isomers) [Product 90] |
| > 10000 | 19 | – | 2 | – | – | > 1000 | CC(c1ccc2c(n1)OCCO2)N1CC[C@@H](Oc2ccc(C#N)nn2)C1 (single isomer, unassigned) [Product 54] |
| 398 | – | – | 8 | 96 | – | > 1000 | Cc1cc(C[C@@H]2CCN(C(C)c3nc4c(cc3F)OCCO4)C2)cc(C)n1 (single isomer, unassigned) [Product 51] |
| 1580 | 87 | – | −13 | – | – | > 1000 | Cc1cc(O[C@@H]2CCN(C(C)c3nc4c(cc3F)OCCO4)C2)cc(C)n1 (single isomer, unassigned) [Product 41] |
| 39.8 | 99 | <6 | 34 | – | – | – | Cc1cc(O[C@@H]2CCN(C(C)c3ccc4c(n3)OCCO4)C2)cc(C)n1 (single isomer, unassigned) [Product 75] |
| 10 | 100 | – | 74 | – | – | 251 | Cc1cc(O[C@@H]2CCN(C(C)c3nc4c(cc3F)OCCO4)C2)cc(C)n1 (some centres unmarked) [Product 39] |
| 20 | – | – | – | 102 | 89 | 126 | COc1cc(C[C@H]2CCN(C(C)c3nc4c(cc3F)OCCO4)C2)cc(C)n1 (some centres unmarked) [Product 16] |
| 200 | 99 | <6 | 15 | – | – | – | Cc1cc(C[C@@H]2CCN(C(C)c3cnc4c(c3)OCCO4)C2)cc(C)n1 (single isomer, unassigned) [Product 36] |
| 2510 | – | – | – | 83 | 8 | > 1000 | Cc1ccc(O[C@H]2CCN(C(C)c3ccc4c(n3)OCCO4)C2)cn1 (some centres unmarked) [Product 56] |
| 158 | – | – | – | 101 | 50 | 741 | COc1cc(C[C@H]2CCN(C(C)c3ccc4c(n3)OCCC4)C2)cc(C)n1 (mixture of isomers) [Product 86] |
| 316 | – | – | – | 96 | 33 | > 1000 | Cc1ccc(O[C@H]2CCN(C(C)c3nc4c(cc3F)OCCO4)C2)cn1 (some centres unmarked) [Product 57] |
| 15.8 | – | – | – | 101 | 72 | 126 | Cc1cc(C[C@H]2CCN([C@@H](C)c3cc4c(cc3F)OCCO4)C2)cc(C)n1 [Product 32] |
| 79.4 | – | – | – | 99 | 33 | > 1000 | Cc1cc(O[C@@H]2CCN(C(C)c3ccc4c(n3)OCCO4)C2)cc(C)n1 (mixture of isomers) [Product 73] |
